Experimental data from patent US6841533B1, “Conformationally constrained backbone cyclized interleukin-6 antagonists” (Peptor Limited, priority 1995, dated 2005).
Numbered stars: 1 amine (or outer) side, 2 acyl side, 3 side chain; on linkers, the order of the positions; unused ones are H or OH. Bridge positions count the residues as written; N and C are the ends. Square brackets hold non-standard residues; d marks the D form. Ends that are not written are not given here. Peptide text beside a SMILES is read from it. TrpN2 = Trp building unit for backbone cyclization, bridging arm N2; Ala(Nα-(CH2)3CO) = C[C@@H](C(=O)[*:2])N(CCCC(=O)[*:3])[*:1]; Ala(Nα-(CH2)3NH) = C[C@@H](C(=O)[*:2])N(CCCN[*:3])[*:1]; Phe(4-NO2) = N[C@@H](Cc1ccc([N+](=O)[O-])cc1)C(=O)O; 4Pal = N[C@@H](Cc1ccncc1)C(=O)O; LysC3 = not defined here; Orn = NCCC[C@H](N)C(=O)O

Experiments:
[1] = tested on: TF1 cells maintained with IL-6; experiment: Bioassay using TF1 cells maintained with IL-6; assay type: cell-based, human; set-up: TF1: unit not given here; conditions: for TF1: MPS crude peptides, Table 6; for Inhibition of IL-6 activity (%), Experiment 24, WST, IL-6 / Inhibition of IL-6 activity (%), Experiment 24, 3H-T, IL-6: cells with IL-6; for Inhibition of IL-6 activity (%), Experiment 24, 3H-T, IL-6: Experiment 24, thymidine incorporation; for specificity of inhibition, IL-6 versus GM-CSF maintained TF1 cells: in words, Table 7 and FIG. 4
From the text: TF1 cells (human erythroleukemia) cells require IL-6 for growth and thus inhibition of IL-6 bioactivity results in cell death, similar to T1165 cells. The origin of all relevant molecules is human.
(§1) The problem associated with toxicity (false positive results), could be overcome in the TF1 based assay since these cells can be induced by additional cytokines which are unrelated to IL-6 (not using the gp130 signal transducer). It, is possible to induce the cells to grow with IL-6 and with additional cytokine e.g. GM-CSF. Specific inhibition of IL-6 bioactivity is therefore expected to register only in cells induced by IL-6 and not with GM-CSF. […] Assay procedure is based on the procedure described in Fourcin et al. (ibid). The amount of viable cells at the end of the assay is determined by staining the cells with WST reagent as well as by measuring thymidine corporation (^3H-T).
The libraries were screened for binding of soluble IL-6. The information obtained was used for synthesis of backbone cyclic peptides in MPS format. Analyses for biological activity were performed on the TF1 human cell line.
(§2) Since the endpoint of the bioassay used is cell death, there is a need to check the specificity of the killing action, and to examine whether the cell death is due to inhibition of the IL-6 signaling pathway. The peptide analogs were therefore analyzed for their ability to induce non-specific cell death when the same cells were maintained with GM-CSF (instead of IL-6) as growth factor.

B16.F10.9 melanoma cells = conditions: for B16F10.9 active at: theoretical crude concentration, MPS peptides
From the text: The F10.9 sub-line of B16 (murine melanoma) expresses gp130 but not IL-6R. Addition of human IL-6 and human IL-6R, or a chimera of IL-6/IL-6R results in differentiation which is associated with growth arrest of the cells. Inhibition of IL-6 results in continued growth. Since the end point of this assay is cell growth rather than cell death, this assay system was used primarily in order to differentiate between suspected toxic effects observed on B9 or T1165 cells, and true inhibition of IL-6 activity.
Evaluation of the results in this assay is possible using two methods. One method uses vital dyes for monitoring cell growth. The second method comprises visual observation of the cell morphology and establishing a cut off point based on the following observations:
Cells which are not treated with IL-6 create a monolayer that covers almost all the surface area. Treatment with IL-6 causes growth arrest and a morphological change: the cells become very narrow and elongated as compared to the more spread out shape of the non-treated cells.
Peptides were added to B16.F10.9 melanoma cells in the presence of 200 ng/ml IL-6 and 125 ng/ml sIL-6R. Incubation for three days.

[2] = tested on: TF1 cells maintained with GM-CSF; experiment: Selectivity bioassay using TF1 cells maintained with GM-CSF; assay type: cell-based, human; conditions: for Inhibition (%), Experiment 24, 3H-T, GM-CSF: Experiment 24, thymidine incorporation
From the text: as §1, §2

Row | IC50 in the B16F10.9 cell assay (B16.F10.9 melanoma cells) | Compound | TF1 [1] | B16F10.9 active at (B16.F10.9 melanoma cells) | Inhibition (%), Experiment 24, WST, GM-CSF [2] | Inhibition (%), Experiment 24, 3H-T, GM-CSF [2] | Inhibition of IL-6 activity (%), Experiment 23, WST, a [1] | Inhibition of IL-6 activity (%), Experiment 23, WST, b [1] | Inhibition of IL-6 activity (%), Experiment 24, WST, IL-6 [1] | Inhibition of IL-6 activity (%), Experiment 24, 3H-T, IL-6 [1] | specificity of inhibition, IL-6 versus GM-CSF maintained TF1 cells [1] | concentration that fully blocks IL-6 activity (B16.F10.9 melanoma cells; 200 ng/ml IL-6 and 125 ng/ml sIL-6R, three days, FIG. 2)
1 |  | CC(C)C[C@@H]1NC(=O)[C@H](C)N(C(=O)[C@@H](Cc2ccccc2)NC(=O)[C@@H](CCCNC(=N)N)NC(=O)[C@H](CCCCN)NC(=O)[C@H](CCCNC(=N)N)NC(=O)[C@H](N)CCCCN)CCCC(=O)NCCCN([C@@H](C)C(N)=O)C(=O)[C@H](Cc2ccc(O)cc2)NC(=O)[C@H](CCCNC(=N)N)NC1=O [(D)Lys-Arg-Lys-(D)Arg-(D)Phe-AlaC3-Leu-Arg-Tyr-AlaN3] (H-[dK]RK[dR][dF][Ala(Nα-(CH2)3CO)]LRY[Ala(Nα-(CH2)3NH)]-NH2; lactam 6-10) | 13 | 62 µM |  |  |  |  |  |  |  | 
2 |  | C[C@@H](C(N)=O)N1CCCNC(=O)CCCN(C(=O)[C@@H](Cc2ccccc2)NC(=O)[C@@H](CCCNC(=N)N)NC(=O)[C@H](CCCCN)NC(=O)[C@H](CCCNC(=N)N)NC(=O)[C@H](N)CCCCN)[C@@H](C)C(=O)N[C@@H](CCCCN)C(=O)N[C@@H](CCCNC(=N)N)C(=O)N[C@@H](Cc2ccc(O)cc2)C1=O [(D)Lys-Arg-Lys-(D)Arg-(D)Phe-AlaC3-Lys-Arg-Tyr-AlaN3] (H-[dK]RK[dR][dF][Ala(Nα-(CH2)3CO)]KRY[Ala(Nα-(CH2)3NH)]-NH2; lactam 6-10) | 17 | 62 µM |  |  |  |  |  |  |  | 
3 |  | CC(C)C[C@H]1NC(=O)[C@H](C)N(C(=O)[C@H](Cc2ccccc2)NC(=O)[C@@H](CCCNC(=N)N)NC(=O)[C@H](CCCCN)NC(=O)[C@H](CCCNC(=N)N)NC(=O)[C@H](N)CCCCN)CCCC(=O)NCCCN([C@@H](C)C(N)=O)C(=O)[C@H](Cc2ccc(O)cc2)NC(=O)[C@H](CCCNC(=N)N)NC1=O [(D)Lys-Arg-Lys-(D)Arg-Phe-AlaC3-(D)Leu-Arg-Tyr-AlaN3] (H-[dK]RK[dR]F[Ala(Nα-(CH2)3CO)][dL]RY[Ala(Nα-(CH2)3NH)]-NH2; lactam 6-10) | 3 | 62 µM |  |  |  |  |  |  |  | 
4 |  | CC(C)C[C@@H]1NC(=O)[C@H](C)N(C(=O)[C@@H](Cc2ccccc2)NC(=O)[C@H](CCCNC(=N)N)NC(=O)[C@H](CCCCN)NC(=O)[C@H](CCCNC(=N)N)NC(=O)[C@H](N)CCCCN)CCCC(=O)NCCCN([C@@H](C)C(N)=O)C(=O)[C@@H](Cc2ccc(O)cc2)NC(=O)[C@H](CCCNC(=N)N)NC1=O [(D)Lys-Arg-Lys-Arg-(D)Phe-AlaC3-Leu-Arg-(D)Tyr-AlaN3] (H-[dK]RKR[dF][Ala(Nα-(CH2)3CO)]LR[dY][Ala(Nα-(CH2)3NH)]-NH2; lactam 6-10) | 23 | 62 µM |  |  |  |  |  |  |  | 
5 |  | C[C@@H](C(N)=O)N1CCCNC(=O)CCCN(C(=O)[C@@H](Cc2ccccc2)NC(=O)[C@H](CCCNC(=N)N)NC(=O)[C@H](CCCCN)NC(=O)[C@H](CCCNC(=N)N)NC(=O)[C@H](N)CCCCN)[C@@H](C)C(=O)N[C@@H](CCCCN)C(=O)N[C@H](CCCNC(=N)N)C(=O)N[C@H](Cc2ccc(O)cc2)C1=O [(D)Lys-Arg-Lys-Arg-(D)Phe-AlaC3-Lys-(D)Arg-(D)Tyr-AlaN3] (H-[dK]RKR[dF][Ala(Nα-(CH2)3CO)]K[dR][dY][Ala(Nα-(CH2)3NH)]-NH2; lactam 6-10) | 17 | 62 µM |  |  |  |  |  |  |  | 
6 | around 20 μg/ml | CC(C)C[C@H](NC(=O)[C@H](CCCNC(=N)N)NC(=O)[C@@H](N)Cc1ccc(O)cc1)C(=O)N[C@@H](CCCNC(=N)N)C(=O)N[C@@H](Cc1ccccc1)C(=O)N1CCCC(=O)NCCCN([C@@H](C)C(=O)N[C@@H](C)C(=O)N[C@@H](CCC(=O)O)C(N)=O)C(=O)[C@H](Cc2ccc(O)cc2)NC(=O)[C@H](CCCNC(=N)N)NC(=O)[C@H](CC(C)C)NC(=O)[C@@H]1C [PTR 5037, Tyr-Arg-Leu-Arg-Phe-AlaC3-Leu-Arg-Tyr-AlaN3-Ala-Glu] (H-YRLRF[Ala(Nα-(CH2)3CO)]LRY[Ala(Nα-(CH2)3NH)]AE-NH2; lactam 6-10; N-terminus and C-terminus assumed) |  |  |  |  |  |  |  |  |  | 
7 |  | (D)Bip-(D)LysC2-Lys-Lys(ZCl)-(D)TrpN2-Abu-NH2 [Peptide 88] |  |  | 103% | 115% | 96% | 98% | 112% | 114% |  | 
8 |  | (D)Bip-(D)LysC3-4PyrAla-Orn-TrpN2-(p-NO2)Phe-NH2 [Peptide 41] |  |  | 25% | −13% | 96% | 100% | 95% | 101% | clearly specific to the IL-6 pathway | 
9 |  | (D)Bip-(D)LysC3-Orn-Lys-AsnN2-Arg-NH2 [Peptide 20] |  |  | −59% | −42% | 37% | 56% | 49% | 78% |  | 
10 |  | (D)Bip-GlyC2-Dab-(D)Glu-(D)AlaN3-Abu-NH2 [Peptide 91] |  |  | 45% | 75% | 98% | 106% | 123% | 113% |  | 
11 |  | (D)PheC2-(D)Bip-Arg-Lys-(D)TrpN2-Gln-NH2 [Peptide 81] |  |  | 43% | 27% | 38% | 46% | 92% | 93% |  | 
12 |  | (D)PheC2-(D)Cit-Dpr-HomArg-(D)GlnN2-(D)Gln-NH2 [Peptide 17] |  |  | −23% | −30% | 50% | 44% | 67% | 80% |  | 
13 |  | Dab-TrpC2-Dpr-Arg(MTR)-(D)AlaN3-Glu-NH2 [Peptide 83] |  |  | −5% | 12% | 2% | 4% | 31% | 51% |  | 
14 |  | Gln-GlyC2-(D)Dab-Arg(MTR)-TrpN2-Trp-NH2 [Peptide 61] |  |  | 4% | −49% | 54% | 58% | 86% | 58% |  | 
15 |  | Lys(ZCL)-AlaC2-Dab-(D)Glu-(D)AlaN3-(D)Trp-NH2 [Peptide 25] |  |  | −49% | 26% | 54% | 54% | 77% | 104% |  | 
16 |  | Lys(ZCL)-GlyC2-Dab-(D)Glu-(D)AlaN3-(D)Trp-NH2 [Peptide 57] |  |  | 48% | 102% | 122% | 114% | 121% | 114% |  | 
17 |  | Lys-TrpC2-(D)Arg-Lys-TrpN3-Gln-NH2 [Peptide 34] |  |  | −27% | 3% | 97% | 108% | 96% | 106% | clearly specific to the IL-6 pathway | 
18 |  | LysC3-Lys-4PyrAla-Orn-TrpN2-(p-NO2)Phe-NH2 ([LysC3]K[4Pal][Orn][TrpN2][Phe(4-NO2)]-NH2; bridge 1-5; reading uncertain; also: backbone cyclization, places not given here, printed as LysC3-Lys-4PyrAla-Orn-TrpN2-(p-NO2)Phe-NH2) [Peptide 40] |  |  | −45% | −63% | 42% | 72% | 43% | 61% |  | 
19 |  | LysC4-Lys-(D)Arg-Lys-TrpN3-Gln-NH2 [Peptide 33] |  |  | 39% | 70% | 116% | 119% | 112% | 113% |  | 
20 |  | Trp-Arg-Lys-(D)Arg-Phe-AlaC3-Leu-Arg-Tyr-AlaN3-NH2 [PTR 5049] |  |  |  |  |  |  |  |  |  | not active
